Reference: patent US20160002248A1, “GLS1 INHIBITORS FOR TREATING DISEASE” (Board of Regents, The University of Texas System, priority 2014, published 2016)

Tests used:
[1] = target: T1, purified recombinant human GAC (GLS1) (Homo sapiens, UniProt O94925); assay: GLS1 Enzymatic Activity Assay (dual-coupled enzymatic assay); type: biochemical
T1 sequence (O94925 55-598 isoform O94925-3 limits assumed): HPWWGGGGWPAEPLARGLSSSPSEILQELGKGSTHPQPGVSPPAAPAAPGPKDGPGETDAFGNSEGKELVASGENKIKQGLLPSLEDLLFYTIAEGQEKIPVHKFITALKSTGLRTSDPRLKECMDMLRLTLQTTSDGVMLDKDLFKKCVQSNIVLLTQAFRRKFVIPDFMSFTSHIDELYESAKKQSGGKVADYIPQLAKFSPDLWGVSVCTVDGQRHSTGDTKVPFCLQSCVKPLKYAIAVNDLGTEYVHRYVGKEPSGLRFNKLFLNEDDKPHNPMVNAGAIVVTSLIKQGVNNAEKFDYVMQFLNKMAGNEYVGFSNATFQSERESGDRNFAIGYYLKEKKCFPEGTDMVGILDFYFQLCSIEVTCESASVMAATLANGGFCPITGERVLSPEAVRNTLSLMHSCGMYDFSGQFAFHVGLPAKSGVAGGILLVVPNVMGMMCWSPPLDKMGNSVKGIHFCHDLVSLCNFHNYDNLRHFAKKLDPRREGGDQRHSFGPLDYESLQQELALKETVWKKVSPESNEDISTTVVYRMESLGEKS
Procedure, shortened: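 In this coupled fluorometric format, phosphate-activated GAC (2 nM, 50 mM phosphate) is pre-exposed to compound for 10 min before 1 mM glutamine addition. Product is tracked as resorufin (530/590 nm) over time or at 20 min, and potency is derived by logistic fitting.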

[2] = system: A549 cells; assay: Proliferation Assay (A549 cell viability, Cell Titer Fluor); type: cell-based; settings: Homo sapiens, 72 hours
Procedure, shortened: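 Compound was added to A549 cells (1000/well, pre-grown 24 h in RPMI 1640 plus 10% dialyzed FBS) at 0.5% DMSO and left 72 h under 37 °C, 5% CO2, ambient O2. Live-cell fluorescence (Cell Titer Fluor) gave the EC50.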

SMILES	IC50 [1]	EC50 [2]
O=C(NCc1ccccc1)c1nnc(CCCCc2cc3cc(Cc4ccccc4)[nH]c3nn2)s1 [Example 73, N-benzyl-5-(4-{6-benzyl-7H-pyrrolo[2,3-c]pyridazin-3-yl}butyl)-1,3,4-thiadiazole-2-carboxamide]	< 0.1 µM	0.5 to 5 µM
O=C(NCc1ccccn1)c1nnc(CCCCc2cc3cc(Cc4ccccc4)[nH]c3nn2)s1 [Example 74, 5-(4-{6-benzyl-7H-pyrrolo[2,3-c]pyridazin-3-yl}butyl)-N-(pyridin-2-ylmethyl)-1,3,4-thiadiazole-2-carboxamide]	< 0.1 µM	0.1 to 0.5 µM
O=C(NCc1ccncc1)c1nnc(CCCCc2cc3cc(Cc4ccccc4)[nH]c3nn2)s1 [Example 75, 5-(4-{6-benzyl-7H-pyrrolo[2,3-c]pyridazin-3-yl}butyl)-N-(pyridin-4-ylmethyl)-1,3,4-thiadiazole-2-carboxamide]	0.1 to 0.5 µM	0.5 to 5 µM
O=C(NCc1cccnc1)c1nnc(CCCCc2cc3cc(Cc4ccccc4)[nH]c3nn2)s1 [Example 76, 5-(4-{6-benzyl-7H-pyrrolo[2,3-c]pyridazin-3-yl}butyl)-N-(pyridin-3-ylmethyl)-1,3,4-thiadiazole-2-carboxamide]	< 0.1 µM	0.1 to 0.5 µM
O=C(NCC1CC1)c1nnc(CCCCc2cc3cc(Cc4ccccc4)[nH]c3nn2)s1 [Example 77, 5-(4-{6-benzyl-7H-pyrrolo[2,3-c]pyridazin-3-yl}butyl)-N-(cyclopropylmethyl)-1,3,4-thiadiazole-2-carboxamide]	0.1 to 0.5 µM	0.5 to 5 µM
O=C(NCC1CCOCC1)c1nnc(CCCCc2cc3cc(Cc4ccccc4)[nH]c3nn2)s1 [Example 78, 5-(4-{6-benzyl-7H-pyrrolo[2,3-c]pyridazin-3-yl}butyl)-N-(oxan-4-ylmethyl)-1,3,4-thiadiazole-2-carboxamide]	0.1 to 0.5 µM	0.5 to 5 µM
CC(C)(CO)CNC(=O)c1nnc(CCCCc2cc3cc(Cc4ccccc4)[nH]c3nn2)s1 [Example 79, 5-(4-{6-benzyl-7H-pyrrolo[2,3-c]pyridazin-3-yl}butyl)-N-(3-hydroxy-2,2-dimethylpropyl)-1,3,4-thiadiazole-2-carboxamide]	0.1 to 0.5 µM	0.5 to 5 µM
NC(=O)c1nnc(CCCCc2cc3cc(Cc4ccccc4)[nH]c3nn2)s1 [Example 80, 5-(4-{6-benzyl-7H-pyrrolo[2,3-c]pyridazin-3-yl}butyl)-1,3,4-thiadiazole-2-carboxamide]	0.1 to 0.5 µM	0.5 to 5 µM
O=C(NCC(F)(F)F)c1nnc(CCCCc2cc3cc(Cc4ccccc4)[nH]c3nn2)s1 [Example 81, 5-(4-{6-benzyl-7H-pyrrolo[2,3-c]pyridazin-3-yl}butyl)-N-(2,2,2-trifluoroethyl)-1,3,4-thiadiazole-2-carboxamide]	0.1 to 0.5 µM	> 5 µM
O=C(NCC1CCOC1)c1nnc(CCCCc2cc3cc(Cc4ccccc4)[nH]c3nn2)s1 (stereo not shown) [Example 82, 5-(4-{6-benzyl-7H-pyrrolo[2,3-c]pyridazin-3-yl}butyl)-N-(oxolan-3-ylmethyl)-1,3,4-thiadiazole-2-carboxamide]	0.1 to 0.5 µM	0.5 to 5 µM
O=C(NCCC(F)(F)F)c1nnc(CCCCc2cc3cc(Cc4ccccc4)[nH]c3nn2)s1 [Example 83, 5-(4-{6-benzyl-7H-pyrrolo[2,3-c]pyridazin-3-yl}butyl)-N-(3,3,3-trifluoropropyl)-1,3,4-thiadiazole-2-carboxamide]	0.1 to 0.5 µM	> 5 µM
COC(C)(C)CNC(=O)c1nnc(CCCCc2cc3cc(Cc4ccccc4)[nH]c3nn2)s1 [Example 84, 5-(4-{6-benzyl-7H-pyrrolo[2,3-c]pyridazin-3-yl}butyl)-N-(2-methoxy-2-methylpropyl)-1,3,4-thiadiazole-2-carboxamide]	0.1 to 0.5 µM	0.5 to 5 µM
O=C(NCc1ccccn1)c1cn(CCCCc2cc3cc(CC4CCCCC4)[nH]c3nn2)nn1 [Example 85, 1-(4-(6-(cyclohexylmethyl)-7H-pyrrolo[2,3-c]pyridazin-3-yl)butyl)-N-(pyridin-2-ylmethyl)-1H-1,2,3-triazole-4-carboxamide]	< 0.1 µM	< 0.1 µM
CC(C)(O)c1ccc(CNC(=O)c2cn(CCCCc3cc4cc(C5CC5)[nH]c4nn3)nn2)cn1 [Example 86, 1-(4-{6-cyclopropyl-7H-pyrrolo[2,3-c]pyridazin-3-yl}butyl)-N-{[6-(2-hydroxypropan-2-yl)pyridin-3-yl]methyl}-1H-1,2,3-triazole-4-carboxamide]	< 0.1 µM	0.1 to 0.5 µM
CC(C)(O)c1cccc(CNC(=O)c2cn(CCCCc3cc4cc(C5CC5)[nH]c4nn3)nn2)n1 [Example 87, 1-(4-(6-cyclopropyl-7H-pyrrolo[2,3-c]pyridazin-3-yl)butyl)-N-((6-(2-hydroxypropan-2-yl)pyridin-2-yl)methyl)-1H-1,2,3-triazole-4-carboxamide]	0.1 to 0.5 µM	0.5 to 5 µM
CCOC(=O)c1cccc(CNC(=O)c2cn(CCCCc3cc4cc(C5CC5)[nH]c4nn3)nn2)n1 [Example 88, ethyl 6-({[1-(4-{6-cyclopropyl-7H-pyrrolo[2,3-c]pyridazin-3-yl}butyl)-1H-1,2,3-triazol-4-yl]formamido}methyl)pyridine-2-carboxylate]	< 0.1 µM	0.5 to 5 µM
CC(C)(O)c1ccc(CNC(=O)c2cn(CCCCc3cc4c(Br)c(C5CC5)[nH]c4nn3)nn2)cn1 [Example 89, 1-(4-{5-bromo-6-cyclopropyl-7H-pyrrolo[2,3-c]pyridazin-3-yl}butyl)-N-{[6-(2-hydroxypropan-2-yl)pyridin-3-yl]methyl}-1H-1,2,3-triazole-4-carboxamide]	< 0.1 µM	0.1 to 0.5 µM
Cc1ccc(CNC(=O)c2cn(CCCCc3cc4c(F)c(C5CC5)[nH]c4nn3)nn2)cn1 [Example 90, 1-(4-(6-cyclopropyl-5-fluoro-7H-pyrrolo[2,3-c]pyridazin-3-yl)butyl)-N-((6-methylpyridin-3-yl)methyl)-1H-1,2,3-triazole-4-carboxamide 2,2,2-trifluoroacetate]	< 0.1 µM	0.5 to 5 µM
Cc1ccc(CNC(=O)c2cn(CCCCc3cc4c(I)c(C5CC5)[nH]c4nn3)nn2)cn1 [Example 91, 1-(4-{6-cyclopropyl-5-iodo-7H-pyrrolo[2,3-c]pyridazin-3-yl}butyl)-N-[(6-methylpyridin-3-yl)methyl]-1H-1,2,3-triazole-4-carboxamide]	< 0.1 µM	0.1 to 0.5 µM
Cc1ccc(CNC(=O)c2cn(CCCCc3cc4cc(Cc5ccccc5)[nH]c4nn3)nn2)cn1 [Example 92, 1-(4-{6-benzyl-7H-pyrrolo[2,3-c]pyridazin-3-yl}butyl)-N-[(6-methylpyridin-3-yl)methyl]-1H-1,2,3-triazole-4-carboxamide]	< 0.1 µM	0.1 to 0.5 µM
CC(C)(C)OC(=O)NCc1cccc(CNC(=O)c2cn(CCCCc3cc4cc(C5CC5)[nH]c4nn3)nn2)c1 [Example 93, tert-butyl N-{[3-({[1-(4-{6-cyclopropyl-7H-pyrrolo[2,3-c]pyridazin-3-yl}butyl)-1H-1,2,3-triazol-4-yl]formamido}methyl)phenyl]methyl}carbamate]	< 0.1 µM	< 0.1 µM
Cc1ccc(CNC(=O)c2cn(CCCCc3cc4cc(C5CN(C(=O)OC(C)(C)C)C5)[nH]c4nn3)nn2)cn1 [Example 94, tert-butyl 3-{3-[4-(4-{[(6-methylpyridin-3-yl)methyl]carbamoyl}-1H-1,2,3-triazol-1-yl)butyl]-7H-pyrrolo[2,3-c]pyridazin-6-yl}azetidine-1-carboxylate]	< 0.1 µM	0.1 to 0.5 µM
Cc1ccc(CNC(=O)c2cn(CCCCc3cc4cc(C5CCN(C(=O)OC(C)(C)C)CC5)[nH]c4nn3)nn2)cn1 [Example 95, ten-butyl 4-{3-[4-(4-{[(6-methylpyridin-3-yl)methyl]carbamoyl}-1H-1,2,3-triazol-1-yl)butyl]-7H-pyrrolo[2,3-c]pyridazin-6-yl}piperidine-1-carboxylate]	< 0.1 µM	0.1 to 0.5 µM
Cc1ccc(CNC(=O)c2cn(CCCCc3cc4c(C5CC5)c(C5CC5)[nH]c4nn3)nn2)cn1 [Example 96, 1-(4-(5,6-dicyclopropyl-7H-pyrrolo[2,3-c]pyridazin-3-yl)butyl)-N-((6-methylpyridin-3-yl)methyl)-1H-1,2,3-triazole-4-carboxamide]	< 0.1 µM	0.1 to 0.5 µM
Cc1ccc(CNC(=O)c2cn(CCCCc3cc4cc(C5CNC5)[nH]c4nn3)nn2)cn1 [Example 97, 1-{4-[6-(azetidin-3-yl)-7H-pyrrolo[2,3-c]pyridazin-3-yl]butyl}-N-[(6-methylpyridin-3-yl)methyl]-1H-1,2,3-triazole-4-carboxamide]	0.1 to 0.5 µM	0.5 to 5 µM
Cc1ccc(CNC(=O)c2cn(CCCCc3cc4cc(C5CCNCC5)[nH]c4nn3)nn2)cn1 [Example 98, N-[(6-methylpyridin-3-yl)methyl]-1-{4-[6-(piperidin-4-yl)-7H-pyrrolo[2,3-c]pyridazin-3-yl]butyl}-1H-1,2,3-triazole-4-carboxamide]	0.5 to 5 µM	> 5 µM
